Experimental data published in publication PMC7838199, “Color-tunable bioluminescence imaging portfolio for cell imaging” (Scientific Reports, 2021).

Experiments:
[1] = test system: T1, Artificial Luciferase 16 (ALuc16); test: bioluminescence, Lineweaver-Burk; format: biochemical, synthetic construct; details: 50 mM HEPES, pH 7.2; 0.1 µM luciferase
T1 construct: designed artificial luciferase; recombinant for the kinetics; cDNA in pcDNA3.1(+) for cell work
Source text: bioluminescence, Lineweaver-Burk on Artificial Luciferase 16 (ALuc16)

[2] = biological target: T2, NanoLuc (Oplophorus gracilirostris, UniProt Q9GV45, A31E/Q38R/Q45L/L54V/A60N/K70R/V71I/A81I/F95D/L99Q/M102K/I117V/P142E/Q151K/Y165I/N193R); test: bioluminescence spectrum in transfected-cell lysate; format: cell-based; details: 50 mM HEPES, pH 7.2; MDA-MB-231 lysate
T2 construct: pcDNA3.1(+) in MDA-MB-231 cells, lysate
T2 sequence (Q9GV45 28-196 with the stated changes): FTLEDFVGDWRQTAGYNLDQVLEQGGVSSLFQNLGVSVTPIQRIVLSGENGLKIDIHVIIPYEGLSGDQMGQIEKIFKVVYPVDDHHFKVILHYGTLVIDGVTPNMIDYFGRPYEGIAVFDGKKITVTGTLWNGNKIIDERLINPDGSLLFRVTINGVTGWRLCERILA

| SMILES | Km [1] [µM] | bioluminescence spectrum in transfected-cell lysate [2] |
| --- | --- | --- |
| CN(C)c1ccc(/C=C/c2cn3c(=O)c(Cc4ccc(O)cc4)nc-3c(Cc3ccccc3)[nH]2)cc1 [1b] | 7.9 |  |
| O=c1c(Cc2ccccc2)nc2c(-c3ccccc3)[nH]c(-c3ccncc3)cn1-2 [3c] | 68.3 |  |
| CN(C)c1ccc(/C=C/C=C/C=C/c2cn3c(=O)c(Cc4ccc(O)cc4)nc-3c(Cc3ccccc3)[nH]2)cc1 [1d] | 70.6 |  |
| CN(C)c1ccc(/C=C/C=C/c2cn3c(=O)c(Cc4ccccc4)nc-3c(-c3ccccc3)[nH]2)cc1 [2c] | 157 |  |
| Oc1ccc(Cc2nc3c(Cc4ccccc4)nc(-c4ccc(O)cc4)cn3c2O)cc1 [CTZ, coelenterazine] | 38.5 |  |
| O=c1c(Cc2ccccc2)nc2c(-c3ccccc3)[nH]c(-c3ccccc3)cn1-2 [3d] | 120 | 3d selectively emits significant BL with NanoLuc |
| CN(C)c1ccc(/C=C/C=C/C=C/c2cn3c(=O)c(Cc4ccccc4)nc-3c(-c3ccccc3)[nH]2)cc1 [2d] | 86.5 |  |
| CN(C)c1ccc(/C=C/C=C/c2cn3c(=O)c(Cc4ccc(O)cc4)nc-3c(Cc3ccccc3)[nH]2)cc1 [1c] | 26.1 |  |
